According to patent US8686022B2, “7-(piperazine-1-ymethyl)-1H-indole-2-carboxylic acid (phenyl)-amide derivatives and allied compounds as p38 MAP kinase inhibitors for the treatment of respiratory diseases” (Boehringer Ingelheim International GmbH, priority 2008, dated 2014):
In brackets after ≈: the same amount, converted by molar mass.

Legend:
p38 MAP-kinase = p38 MAP-kinase (Homo sapiens, UniProt Q16539); test: p38 MAP-kinase enzymatic assay (phosphorylation of GST-tagged ATF2, chemoluminescence); format: biochemical; conditions: inhibitor concentration 1 μM; activated p38 MAP-kinase 1 nM; ATP 100 μM; read-out: p38 (% Inh @ 1 μM)
Experimental: In this, the amount of a substrate phosphorylated by the kinase is quantified. The test is carried out as follows:
The kinase reaction is carried out in the presence of HEPES (20 mM, pH 7), MgCl2 (10 mM), DTT (1 mM) and TWEEN20 (0.01%). First, dimethylsulphoxide or inhibitor (final concentration: 1 μM) dissolved in dimethylsulphoxide are placed in a reaction vessel. Then the activated p38 MAP-kinase (final concentration 1 nM) is added and the mixture is incubated for 4 h at ambient temperature. Then a mixture of substrate (GST-tagged ATF2) and ATP is added and everything is incubated together for a further hour (final concentration ATP: 100 μM; final concentration ATF2: 10 nM).
The concentration of phosphorylated ATF2 is quantified by chemoluminescence-induced light emission. For this, a glutathione donor bead (final concentration: 5 μg/ml) which binds to the gluthathione on the ATF2 and phospho-ATF2 antibodies are added to the reaction mixture (final concentration: 3 nM; this binds the phosphate group added by the kinase reaction) to which a Protein A Acceptor Bead (final concentration: 5 μg/ml) binds. These components are dissolved in a buffer which contains 20 mM HEPES pH 7.0, 200 mM NaCL, 80 mM EDTA as well as 0.3% BSA. This reaction mixture is incubated in the dark for 1 hour at ambient temperature. When these beads come physically close, visible light is emitted which is measured in a photometer at 520-620 nm.
To determine the inhibitory activity of the compounds according to the invention a calculation is made to determine the percentage by which the kinase activity is inhibited at a fixed inhibitor concentration of 1 μM. The maximum activity is determined by non-inhibited kinase. The minimum activity or nonspecific background activity is determined using a reaction mixture without kinase.
Table 2 summarises the degree of inhibition of the enzyme p38 MAP-kinase—as described hereinbefore—mediated by the compounds according to the invention detailed in the section “Preparation of the final compounds”.

[1] = Determining the solubility (saturated solution in McIlvaine buffer pH 7.4, UV spectroscopy); format: physicochemical; conditions: pH 7.4, aqueous buffer, thermodynamic from solid, shaken 2 hours, 0.75 mg solid in 0.75 ml
Experimental: Determining the Solubility:
Saturated solutions are prepared in suitable well dishes by adding 0.75 ml of a McIlvaine buffer (pH 7.4) to the well in question containing 0.75 mg of solid of an active substance. The wells are shaken for 2 hours and then filtration is carried out through a suitable filter membrane (typically polytetrafluoroethylene with a pore size of 0.45 μm). Filter absorption is prevented by discarding the first few drops of filtrate. The amount of active substance dissolved is determined by UV spectroscopy.

cytochrome P450 2C9 = cytochrome P450 2C9 (Homo sapiens, UniProt P11712); test: Determining the cyp2C9 activity (O-demethylation of [O-methyl-14C]-naproxen); format: in vitro ADME; conditions: human recombinant cytochrome P450 2C9; 37° C.; <0.4 μM when inhibition >50% at lowest concentration; read-out: CYP 2C9 IC50
Experimental: Determining the cyp2C9 Activity:
The assay is carried out in a robot system with 96-well plates. The final incubation volume is 200 μl of TRIS-Puffer (0.1 M), magnesium chloride (5 mM), recombinant protein (40 pmol/ml), ^14C-labelled naproxen (80 μM) and the test compound in one of 4 concentrations (50 μM, 10 μM, 2 μM and 0.4 μM) as a duplicate in each case. After a short preincubation period the reactions are started by the addition of the cofactor (NADPH, 1 mM) and ended after 15 min by the addition of 50 μl of a 10% aqueous trichloroacetic acid solution. One aliquot of the incubate is transferred onto a 96-well solid phase extraction plate and extracted. The ^14C-formaldehyde formed during the reaction is not retained on the solid phase extraction plate and is thus separated from the unmetabolised substrate by washing the solid phase extraction plate with water. One aliquot of the eluate is transferred into a well plate suitable for liquid scintillation. […] The IC50 is determined by the least squares method using the following formula: control activity=(100% control activity/(1+(I/IC50)S))−B where I=Inhibitor concentration S=Pitch B=Background activity
When the inhibition of the reaction is >50% even at the lowest concentration of the test compound, the IC50 is given as <0.4 μM.

Sequence of cytochrome P450 2C9 (P11712 whole entry): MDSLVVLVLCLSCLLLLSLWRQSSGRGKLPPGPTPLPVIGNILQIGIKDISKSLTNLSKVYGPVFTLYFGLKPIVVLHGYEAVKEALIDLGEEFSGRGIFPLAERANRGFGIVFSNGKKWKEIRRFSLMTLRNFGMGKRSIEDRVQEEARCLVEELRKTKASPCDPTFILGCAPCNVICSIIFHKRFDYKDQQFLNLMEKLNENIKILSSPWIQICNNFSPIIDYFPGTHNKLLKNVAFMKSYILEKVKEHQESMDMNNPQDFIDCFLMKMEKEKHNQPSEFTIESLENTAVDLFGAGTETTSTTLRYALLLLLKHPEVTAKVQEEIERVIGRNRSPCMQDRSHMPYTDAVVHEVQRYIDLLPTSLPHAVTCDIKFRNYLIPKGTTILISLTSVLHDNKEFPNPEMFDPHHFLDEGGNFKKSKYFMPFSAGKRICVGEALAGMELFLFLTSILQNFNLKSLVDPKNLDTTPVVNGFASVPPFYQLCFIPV
Sequence of p38 MAP-kinase (Q16539 whole entry): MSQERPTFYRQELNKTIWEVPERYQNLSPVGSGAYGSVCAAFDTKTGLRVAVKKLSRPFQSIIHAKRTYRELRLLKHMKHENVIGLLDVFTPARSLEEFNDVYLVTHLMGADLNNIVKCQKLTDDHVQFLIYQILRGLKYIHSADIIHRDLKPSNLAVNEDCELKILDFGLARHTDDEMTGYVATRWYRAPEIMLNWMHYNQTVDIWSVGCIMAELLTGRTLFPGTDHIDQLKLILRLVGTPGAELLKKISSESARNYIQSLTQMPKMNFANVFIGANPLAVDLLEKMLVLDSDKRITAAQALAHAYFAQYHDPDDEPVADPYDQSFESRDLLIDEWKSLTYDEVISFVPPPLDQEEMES

Row | Compound | inhibition at 1 µM (p38 MAP-kinase) [%] | solubility at 2 h [1] [µg/mL] | IC50 (cytochrome P450 2C9) [nM]
1 | COc1c(NC(=O)c2cc3cccc(CN4CCN(C(=O)[C@H]5C[C@H](O)CN5C)CC4)c3n2C)cc(C(C)(C)C)cc1NS(C)(=O)=O [1(11), 7-[4-((2R,4S)-4-hydroxy-1-methyl-pyrrolidine-2-carbonyl)-piperazin-1-ylmethyl]-1-methyl-1H-indole-2-carboxylic acid(5-tert-butyl-3-methanesulphonylamino-2-methoxy-phenyl)-amide] | 99.2 | 45 (≈ 68.7 µM) | 410
2 | CCOc1c(NC(=O)c2cc3cccc(CN4CCN(C(=O)[C@@H]5CCCN5C)CC4)c3n2C)cc(C(C)(C)C)cc1NS(C)(=O)=O [11(7), (S)-1-methyl-7-[4-(1-methyl-pyrrolidine-2-carbonyl)-piperazin-1-ylmethyl]-1H-indole-2-carboxylic acid-(5-tert-butyl-3-methanesulphonylamino-2-ethoxy-phenyl)-amide] | 99.3 | 110 (≈ 168 µM) | 410
3 | COc1c(NC(=O)c2cc3cccc(CN4CCCN(C(=O)[C@H]5CCN(C)C5)CC4)c3n2C)cc(C(C)(C)C)cc1NS(C)(=O)=O [5(1), (S)-1-methyl-7-[4-(1-methyl-pyrrolidine-3-carbonyl)-[1,4]diazepan-1-ylmethyl]-1H-indole-2-carboxylic acid-(5-tert-butyl-3-methanesulphonylamino-2-methoxy-phenyl)-amide] | 94.9 | 170 (≈ 260 µM) | 2040
4 | COc1c(CS(C)(=O)=O)cc(C(C)(C)C)cc1NC(=O)c1cc2cccc(CN3CCN(C(=O)[C@@H]4CCCN4C)CC3)c2n1C [11(5), (S)-1-methyl-7-[4-(1-methyl-pyrrolidine-2-carbonyl)-piperazin-1-ylmethyl]-1H-indole-2-carboxylic acid-(5-tert-butyl-3-methanesulphonylmethyl-2-methoxy-phenyl)-amide] | 99.6 | 53 (≈ 83.1 µM) | 2340
5 | COc1c(NC(=O)c2cc3cccc(CN4CCN(C(=O)[C@@H]5CCCN5)CC4)c3n2C)cc(C(C)(C)C)cc1NS(C)(=O)=O [1(4), (S)-1-methyl-7-[4-(pyrrolidine-2-carbonyl)-piperazin-1-ylmethyl]-1H-indole-2-carboxylic acid(5-tert-butyl-3-methanesulphonylamino-2-methoxy-phenyl)-amide] | 99.2 | 100 (≈ 160 µM) | 890
6 | COc1c(CN2CCC(N(C)C)CC2)cc(C(C)(C)C)cc1NC(=O)c1cc2cccc(CN3CCN(C(=O)[C@@H]4CCCN4C)CC3)c2n1C [9(5), (S)-1-methyl-7-[4-(1-methyl-pyrrolidine-2-carbonyl)-piperazin-1-ylmethyl]-1H-indole-2-carboxylic acid-[5-tert-butyl-3-(4-dimethylamino-piperidin-1-ylmethyl)-2-methoxy-phenyl]-amide] | 97.5 | 490 (≈ 714 µM) | 6880
7 | CCC(=O)Nc1cc(C(C)(C)C)cc(NC(=O)c2cc3cccc(CN4CCN(C(=O)[C@@H]5CCCN5C)CC4)c3n2C)c1OC [Example 12, (S)-1-methyl-7-[4-(1-methyl-pyrrolidine-2-carbonyl)-piperazin-1-ylmethyl]-1H-indole-2-carboxylic acid-(5-tert-butyl-2-methoxy-3-propionylamino-phenyl)-amide] | 97.9 | 660 (≈ 1070 µM) | 500
8 | CNC(=O)c1cc(C(C)(C)C)cc(NC(=O)c2cc3cccc(CN4CCN(C(=O)[C@@H]5CCCN5C)CC4)c3n2C)c1OC [10(3), (S)-1-methyl-7-[4-(1-methyl-pyrrolidine-2-carbonyl)-piperazin-1-ylmethyl]-1H-indole-2-carboxylic acid-(5-tert-butyl-2-methoxy-3-methylcarbamoyl-phenyl)-amide] | 99.3 | 590 (≈ 979 µM) | 1600
9 | COc1c(NC(=O)c2cc3cccc(CN4CCN(C(=O)CN5CCNCC5)CC4)c3n2C)cc(C(C)(C)C)cc1NS(C)(=O)=O [Example 7, 1-methyl-7-[4-(2-piperazin-1-yl-acetyl)-piperazin-1-ylmethyl]-1H-indole-2-carboxylic acid-(5-tert-butyl-3-methanesulphonylamino-2-methoxy-phenyl)-amide] | 98.7 | 110 (≈ 168 µM) | 5320
10 | CCC(C)c1cc(NC(=O)c2cc3cccc(CN4CCN(C(=O)[C@@H]5CCCN5C)CC4)c3n2C)c(OC)c(NS(C)(=O)=O)c1 (stereo partly drawn) [11(1), 1-methyl-7-[4-((2S)-1-methyl-pyrrolidine-2-carbonyl)-piperazin-1-ylmethyl]-1H-indole-2-carboxylic acid-(5-sec-butyl-3-methanesulphonylamino-2-methoxy-phenyl)-amide] | 13.2 | > 1000 | 2650
11 | COc1c(NC(=O)c2cc3cccc(CN4CCN(C(=O)CN5CCN(C)CC5)CC4)c3n2C)cc(C(C)(C)C)cc1NS(C)(=O)=O [1(17), 1-methyl-7-{4-[2-(4-methyl-piperazin-1-yl)-acetyl]-piperazin-1-ylmethyl}-1H-indole-2-carboxylic acid-(5-tert-butyl-3-methanesulphonylamino-2-methoxy-phenyl)-amide] | 99.1 | 46 (≈ 68.9 µM) | 990
12 | COc1c(NC(=O)c2cc3cccc(CN4CCN(C(=O)CN5CC[C@H](N(C)C)C5)CC4)c3n2C)cc(C(C)(C)C)cc1NS(C)(=O)=O [6(3), (S)-7-{4-[2-(3-dimethylamino-pyrrolidin-1-yl)-acetyl]-piperazin-1-ylmethyl}-1-methyl-1H-indole-2-carboxylic acid-(5-tert-butyl-3-methanesulphonylamino-2-methoxy-phenyl)-amide] | 98.5 | 910 (≈ 1330 µM) | 2930
13 | COc1c(NC(=O)c2cc3cccc(CN4CCN(C(=O)[C@@H]5CCCN5C)CC4)c3n2C)cc(C(C)(C)C)cc1C(=O)NC1CC1 [Example 10, (S)-1-methyl-7-[4-(1-methyl-pyrrolidine-2-carbonyl)-piperazin-1-ylmethyl]-1H-indole-2-carboxylic acid-(5-tert-butyl-3-cyclopropylcarbamoyl-2-methoxy-phenyl)-amide] | 99.1 | 420 (≈ 668 µM) | 1320
14 | COc1c(NC(=O)c2cc3cccc(CN4CCCN(C(=O)[C@H]5CCCN5C)CC4)c3n2C)cc(C(C)(C)C)cc1NS(C)(=O)=O [1(21), 1-methyl-7-[4-((2R)-1-methyl-pyrrolidine-2-carbonyl)-[1,4]diazepan-1-ylmethyl]-1H-indole-2-carboxylic acid-(5-tert-butyl-3-methanesulphonylamino-2-methoxy-phenyl)-amide] | 98.9 | 45 (≈ 68.9 µM) | 4020
15 | COc1c(NC(=O)c2cc3cccc(CN4CCN(C(=O)CN5CC[C@@H](O)C5)CC4)c3n2C)cc(C(C)(C)C)cc1NS(C)(=O)=O [6(1), (R)-7-{4-[2-(3-hydroxy-pyrrolidin-1-yl)-acetyl]-piperazin-1-ylmethyl}-1-methyl-1H-indole-2-carboxylic acid-(5-tert-butyl-3-methanesulphonylamino-2-methoxy-phenyl)-amide] | 99.2 | 47 (≈ 71.8 µM) | 470
